System: mice
Assay: hot plate test (analgesic effect) after intravenous or oral application
Assay type: in vivo
Settings: intravenous injection, dalargin dose 10.0 mg/kg
Source text: Dalargin was given either in solution, or after sorptive binding to nanoparticles. The groups (n=10) are as follows:
Dalargin was given either in solution, or after sorptive binding to nanoparticles. The data were collected at different time points following oral application.
Dalargin was given either in solution, or after sorptive binding to nanoparticles that were stabilized with Dextran 12.000.
Dalargin was adsorbed to poly(butyl cyanoacrylate) nanoparticles which were stabilized with polysorbate 85.
After this time, the preparation was injected intravenously into mice at a dalargin dose of 10.0 mg/kg. Various preparations include pure dalargin solution and empty nanoparticles served as controls.
Activity threshold was measured with the hot plate test.
2. […] The analgesia was determined 30, 45, 60, 90, 120 and 150 min after p.o. application.
4. To test the question whether other stabilizers may be used to achieve the desired effect, nanoparticles were investigated in which the stabilizer was the low molecular size dextran 12,000. The dextran 12,000 stabilized nanoparticles of Example 2 were loaded with dalargin, and the analgesic effect was determined in the hot plate test after intravenous injection into mice.

dalargin was tested, and the “analgesic effect, hot plate test” value was “did not exhibit any analgesic effect” and the “analgesic effect, hot plate test” value (listed as dalargin alone) was “None of the control groups (empty nanoparticles and dalargin alone) exhibited any analgesic effects”.

Source: patent US7025991B2, “Drug targeting system, method of its preparation and its use” (NanoDel Technologies GmbH, priority 1997, dated 2006)
